Among the data in PubChem BioAssay (NCI) are TGI values, retold here.

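Interpolation was linear, between the two tested concentrations surrounding the appropriate level; five concentrations were tested over 48 hours in 96-well plates. Definition used: TGI = concentration required for complete inhibition of growth.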 Some results are limits rather than exact numbers.

Some test systems named below: CCRF-CEM leukemia; HCT-15 colon; HOP-62 NSCLC; HT29 colon; MALME-3M melanoma; NCI-H522 lung; OVCAR-4 ovarian; OVCAR-5 ovarian; RXF 393 renal; SF-268 CNS; SK-MEL-28 melanoma; SK-MEL-5 melanoma; SNB-19 CNS; SNB-75 CNS; SW-620 colon; UO-31 renal; ACHN renal; DU-145 prostate; PC-3 prostate; T-47D breast.
Common to all, as to assay: NCI anticancer screen, dose series, 48 h

For `O=C(O)CCCCCCCCC(=O)O`, the TGI with CCRF-CEM leukemia, in the test with HCT-15 colon, with HOP-62 NSCLC, in the test on HT29 colon, in the test with MALME-3M melanoma and in the test on NCI-H522 lung was above 500 µM each time. Further, the TGI with OVCAR-4 ovarian, in the test with OVCAR-5 ovarian, with RXF 393 renal, in the test on SF-268 CNS, in the test on SK-MEL-28 melanoma and with SK-MEL-5 melanoma was above 500 µM in each case. For the same compound, the TGI with SNB-19 CNS was above 79.3 µM; in the test on SNB-75 CNS, above 79.3 µM; in the test with SW-620 colon, above 500 µM; in the test with UO-31 renal, above 500 µM.

Turning to `COc1ccc([C@H]2C=[N+]([O-])O[C@H](OC3CCCC3)[C@@H]2OC(C)=O)cc1OC`, the TGI in the test on ACHN renal was 88.4 µM; with CCRF-CEM leukemia, 20.1 µM; in the test on DU-145 prostate, 89.6 µM; in the test on HCT-15 colon, 78.5 µM; in the test with HOP-62 NSCLC, above 100 µM; with HT29 colon, 54.7 µM. Also, the TGI in the test on MALME-3M melanoma is 51.2 µM; in the test with NCI-H522 lung it was 17.9 µM; with OVCAR-4 ovarian it was above 100 µM; in the test on PC-3 prostate it was above 100 µM; in the test on RXF 393 renal, 29.8 µM; in the test on SF-268 CNS, above 100 µM. The TGI with SK-MEL-28 melanoma was 44.2 µM; in the test with SK-MEL-5 melanoma, 29.6 µM; in the test on SNB-19 CNS, above 100 µM; with SNB-75 CNS, above 100 µM; with SW-620 colon, 53 µM; with T-47D breast, 53.2 µM. This compound had a TGI in the test on UO-31 renal of 40.6 µM.

As to `O=S1(=O)C[C@@H](NCc2ccccc2)[C@H](NCc2ccccc2)C1`, the TGI in the test on ACHN renal, in the test with CCRF-CEM leukemia, in the test with DU-145 prostate, with HOP-62 NSCLC, with HT29 colon and in the test with MALME-3M melanoma was above 100 µM throughout. Moreover, the TGI in the test with NCI-H522 lung, with OVCAR-4 ovarian, in the test on OVCAR-5 ovarian, with PC-3 prostate, in the test on RXF 393 renal and with SF-268 CNS was above 100 µM throughout. The TGI in the test on SK-MEL-28 melanoma, in the test on SK-MEL-5 melanoma, with SNB-19 CNS, with SNB-75 CNS, with SW-620 colon and in the test with T-47D breast was above 100 µM in each case. Also, in the test on UO-31 renal, the TGI is above 100 µM.

Regarding `O=C1c2cccc(O)c2C(=O)c2c(O)cc(CO)cc21`, the TGI in the test on ACHN renal was above 100 µM; in the test on CCRF-CEM leukemia it was above 100 µM; in the test with HCT-15 colon, above 100 µM; with HOP-62 NSCLC, above 100 µM; with HT29 colon it was above 100 µM; with MALME-3M melanoma, 83.6 µM. Besides, the TGI was 64.6 µM with NCI-H522 lung; above 100 µM in the test with OVCAR-4 ovarian; above 100 µM in the test with OVCAR-5 ovarian; above 100 µM in the test with RXF 393 renal; above 100 µM with SF-268 CNS; above 100 µM in the test with SK-MEL-28 melanoma. Moreover, the TGI with SK-MEL-5 melanoma was 30.7 µM; in the test with SNB-19 CNS, above 100 µM; with SNB-75 CNS it was above 100 µM; with SW-620 colon, above 100 µM.

On to `Cc1cc(C)c(/C=C(\C(=C/c2c(C)cc(C)cc2C)[N+](=O)[O-])[N+](=O)[O-])c(C)c1`, for which the TGI with ACHN renal, with CCRF-CEM leukemia, with DU-145 prostate, with HOP-62 NSCLC, with HT29 colon and in the test on OVCAR-4 ovarian was above 100 µM in each case. Moreover, the TGI was above 100 µM with OVCAR-5 ovarian; above 100 µM in the test on PC-3 prostate; 90.4 µM in the test on RXF 393 renal; above 100 µM in the test with SK-MEL-28 melanoma; above 100 µM in the test with SK-MEL-5 melanoma; above 100 µM with SNB-19 CNS. The TGI with SNB-75 CNS, with SW-620 colon, in the test on T-47D breast and with UO-31 renal was above 100 µM in each case.
